Measured values: paper PMC7644710, “Structural insights into the mechanism of rhodopsin phosphodiesterase” (Nature Communications, 2020)

Key:
Rh-PDE wt (full-length) = molecular target: T1, Rh-PDE wt (full-length) (Salpingoeca rosetta, UniProt F2TZN0); assay: HPLC hydrolysis assay, HEK293T homogenate; type: biochemical; details: 100 μM cGMP, dark or light (Y52 filter), 3 mM MgCl2, pH 6.5, room temperature
T1 construct: gene PTSG_02023; full-length, RHO 1D4 tag, ~75 kDa; human codon-optimised gene expressed in HEK293T; dimer

[1] = molecular target: T2, Rh-PDE-TMD (SrRh-PDE transmembrane domain) (Salpingoeca rosetta, UniProt F2TZN0); assay: X-ray crystallography, […] Å; type: binding; details: covalent; Schiff base at Lys296 in TM7; LCP crystals, pH 5.0
T2 construct: gene PTSG_02023; rhodopsin / transmembrane domain (TM0-7), residues 33-316; C-terminal GFP-His8 cut by TEV; HEK293S GnTI-; dimer

[2] = molecular target: the molecule itself; assay: SEC-MALS; SEC-MALLS, Superdex 200 Increase 10/300, 4 °C, 20 mM Tris-HCl pH 8.0, 150 mM NaCl, 0.01% LMNG; three-detector method
[3] = molecular target: the molecule itself; assay: high-speed atomic force microscopy (HS-AFM); purified full-length Rh-PDE reconstituted in an asolectin lipid bilayer, on APTES-treated mica, buffer without detergent, room temperature, tapping mode

Nc1nc2c(ncn2[C@@H]2O[C@@H]3COP(=O)(O)O[C@H]3[C@H]2O)c(=O)[nH]1 [cGMP]
HPLC hydrolysis assay, HEK293T homogenate (Rh-PDE wt (full-length)): The wild-type Rh-PDE showed three and twofold light-induced productions of cAMP and cGMP, respectively

CC1=C(/C=C/C(C)=C/C=C/C(C)=C/C=O)C(C)(C)CCC1 [all-trans retinal]
X-ray crystallography, 2.6 Å [1]: canonical rhodopsin-like topology with covalently linked retinal at Lys296 in TM7

B1: Rhodopsin phosphodiesterase transmembrane domain (Rh-PDE–TMD, residues 33–316) (domain or fragment, Salpingoeca rosetta, UniProt F2TZN0 33-316, looked up)
chain: GRGKRRAKTRNIAIASTKEVQWQGIFMIIVWLCVMGSLIFFANPEASRRVFAKFSHLQSFYGATSVAFAFATGLDILAYVNAVSDEKRVLSGILAYVDGVACISYLSMATLNLYFLVDSTQGNPVWLMRYAEWIITCPTLLYWCGLASRADRSSVSDIATADALLLAGGALSSILPSWPAFFVFAGSFATYIYVMLHMWGMFGKAMQPDFQPPPPLPRHALHLLRCEIVMSWSIFPLVEFLRRQGYIDFQVGEAMNCVADYAAKVGLAMIMVNCNLEQINALRV
modifications: covalently linked retinal at Lys296
notes: Rhodopsin phosphodiesterase (Rh-PDE) of Salpingoeca rosetta, transmembrane domain, residues 33-316; gene synthesised with human codon optimisation; TEV site between the protein and the GFP-His8 tag; also called SrRh-PDE–TMD; source: HEK293S GnTI- cells (pEG BacMam), purified (TALON, TEV cleavage, SEC) in LMNG/CHS; not shown: GFP-His8, C-terminal, cleaved
stoichiometry N [2]: 2

B2: Full-length rhodopsin phosphodiesterase from Salpingoeca rosetta (enzyme, UniProt F2TZN0 1-704, looked up)
chain: MGRKNAANSSMLQEASMNNYSMTSAASGASSSGRGKRRAKTRNIAIASTKEVQWQGIFMIIVWLCVMGSLIFFANPEASRRVFAKFSHLQSFYGATSVAFAFATGLDILAYVNAVSDEKRVLSGILAYVDGVACISYLSMATLNLYFLVDSTQGNPVWLMRYAEWIITCPTLLYWCGLASRADRSSVSDIATADALLLAGGALSSILPSWPAFFVFAGSFATYIYVMLHMWGMFGKAMQPDFQPPPPLPRHALHLLRCEIVMSWSIFPLVEFLRRQGYIDFQVGEAMNCVADYAAKVGLAMIMVNCNLEQINALRVQQMHSALTGMLKVMRKTNLSSSRMAQLDGVDDDVKSWIMNEFSGSTDGKGGDDAKAQQRARGRKGHSAAMDAEKLAASSLFTWDFDALDKSDEDLTAVCVRVFQELHVIEQFNIDEKKLRKWLQKVRTQYNKNPFHNWRHAVMVLHTTYLLLTSVATEFITEVELLAMLIAALSHDLDHNGLTNAFHINSRSELALVYNDQSVLENHHSHLAFEILLEKGCNVVENLDEDEFKRLRAVIINCILNTDMATHHTKLSKMEEVNRLGGFINLAENNDQRLFVLAVLLHTADLHNPIKPFESNKRWSARLQKEFNNQVELEAKMNLPSLPFMRGNDEESLAKGEIGFINFVVKPWHQQLSQAFPKLDFLLDTIDANLAEWKAIAESYRQMH
notes: Rhodopsin phosphodiesterase (Rh-PDE) of Salpingoeca rosetta, full length; also called full-length Rh-PDE; Rh-PDE (full); source: purified as the TMD constructs (HEK293S GnTI- cells) but in DDM/CHS; reconstituted in an asolectin lipid bilayer; not shown: GFP-His8, C-terminal, cleaved
stoichiometry N [3]: 2
